# pIC50: −log10 of the molar value.
# Assays:
# NMNAT2-V5 polypeptide = NMNAT2-V5 polypeptide expression in transfected Beas2B cells (Western blot), dose dependent, 24 h; format: cell-based; conditions: Beas2B cells transfected with NMNAT2-V5 plasmid, compound for 24 hours, read-out: A: compound efficacy (IC50) for NMNAT2 activation
# Protocol: FIG. 1. Beas2B cells were transfected with NMNAT2-V5 plasmid. 24 hours later, cells were treated with compounds in a dose dependent manner (0, 1, 5, and 25 μM) for additional 24 hours. Cells were then collected and assayed for NMNAT2-V5 protein expression.
# Selected compounds were tested in vitro. Briefly, Beas2B cells were transfected with NMNAT2-V5 plasmid. 24 hours later, cells were treated with a test compound in a dose dependent manner for additional 24 hours. Cells were then collected and assayed for NMNAT2-V5 polypeptide expression. Results of the assay are shown in Table A. Western blots showing levels of NMNAT2-V5 polypeptide for selected compounds are shown in FIG. 1.
# NMNAT2 = assay: NMNAT2-Hibit nano-luciferase activity in transfected U87MG cells, 5 μM, 48 hours; format: cell-based; conditions: NMNAT2-Hibit luciferase plasmid, 48 hours (Table D)
# Protocol: Selected compounds were tested in vitro. Briefly, U87MG cells were transfected with NMNAT2-Hibit luciferase plasmid. Cells were treated with test compound at 5 μM for 48 hours. Cells were then collected and assayed for nano-luciferase activity.
SMILES,pIC50 (NMNAT2-V5 polypeptide),D: compound efficacy for NMNAT2 activation; increase in NMNAT2 luciferase activity (NMNAT2)
O=C(COc1ccc(F)cc1)N1CCN(Cc2cccc(-c3n[nH]c(-c4cccc(Cl)c4)n3)c2)CC1 [BC18124],> 5.30,–
O=C(Cn1ccc2ccc(F)cc21)NCc1ccccn1 [BC18127],4.60 to 5.30,–
O=C(COc1nc2cc(C(=O)NCc3ccc(F)cc3)ccc2c(=O)n1CCOO)c1ccc(O)cc1 [BC18132],> 5.30,–
Cc1ccc2onc(CNC(=O)NCc3cccc(Cl)c3)c2c1 [BC18125],> 5.30,–
COc1ccc(OCC(=O)Nc2ccc3c(c2)nc(CCNC(=O)c2cccs2)n3C)cc1 [BC18118],≤ 4.60,–
O=C(Cn1ccc2ccc(F)cc21)NCc1ccco1 [BC18126],> 5.30,–
COc1ccc(Cn2cc(C(CC(=O)NCc3ccco3)C(C)(C)C)c3ccccc32)cc1 (centres unmarked) [BC181263],–,++ (“++” >20% and <100% increase in NMNAT2 luciferase activity.)
O=C(Cn1cc(C(=O)c2ccco2)c2ccccc21)NCc1ccccc1 [BC181223],–,+ (“+” <20% increase in NMNAT2 luciferase activity.)
CCC(=O)c1cn(CC(=O)NCc2cccnc2)c2ccccc12 [BC181226],–,+ (“+” <20% increase in NMNAT2 luciferase activity.)
Cc1ccc2c(c1)c(=O)c(C(=O)c1ccncc1)cn2CC(=O)NCc1ccc(Cl)cc1 [BC181251],–,++ (“++” >20% and <100% increase in NMNAT2 luciferase activity.)
Cc1ccc2c(c1)c(=O)c(C(=O)c1ccncc1)cn2CC(=O)NCc1ccc(F)cc1 [BC181252],–,++ (“++” >20% and <100% increase in NMNAT2 luciferase activity.)
Cc1c(C)n(Cc2ccccc2)c2ccc(C(=O)NCc3ccco3)cc12 [BC181247],–,+++ (“+++” >100% increase in NMNAT2 luciferase activity.)
Cc1ccc(Cn2cc(C(CC(=O)NCc3ccco3)C(C)C)c3ccccc32)cc1 (centres unmarked) [BC181265],–,+ (“+” <20% increase in NMNAT2 luciferase activity.)
O=C(Cn1cc(C(=O)C(F)(F)F)c2ccccc21)NCc1ccccc1 [BC181201],–,+++ (“+++” >100% increase in NMNAT2 luciferase activity.)
CCc1cccc2c(C(=O)C(=O)NCCc3ccccc3)cn(Cc3ccccc3)c12 [BC181228],–,+ (“+” <20% increase in NMNAT2 luciferase activity.)
Cc1ccc(CNC(=O)c2ccc3c(c2)c(C)c(C)n3Cc2ccccc2)o1 [BC181248],–,++ (“++” >20% and <100% increase in NMNAT2 luciferase activity.)
O=C(Cn1cc(C(=O)c2ccccc2)c2ccccc21)Nc1ccc(Br)cc1 [BC181215],–,+ (“+” <20% increase in NMNAT2 luciferase activity.)
Cc1ccc(Cn2cc(CCCC(=O)NC(C)C)c3ccccc32)cc1 [BC181232],–,+ (“+” <20% increase in NMNAT2 luciferase activity.)
O=C(CC(CCc1ccccc1)c1cn(Cc2ccccc2)c2ccccc12)NCc1ccco1 (centres unmarked) [BC181264],–,+ (“+” <20% increase in NMNAT2 luciferase activity.)
O=C(Cn1cc(C(=O)c2ccccc2)c2ccccc21)NCc1ccc2c(c1)OCO2 [BC181216],–,+ (“+” <20% increase in NMNAT2 luciferase activity.)
O=C(Cn1cc(C(=O)C2CC2)c2ccccc21)NCc1ccccc1 [BC181203],–,++ (“++” >20% and <100% increase in NMNAT2 luciferase activity.)

SMILES,pIC50 (NMNAT2-V5 polypeptide),D: compound efficacy for NMNAT2 activation; increase in NMNAT2 luciferase activity (NMNAT2)
O=C(Cn1cc(C(=O)c2ccncc2)c(=O)c2cc(F)ccc21)NCc1ccccc1 [BC181253],–,++ (“++” >20% and <100% increase in NMNAT2 luciferase activity.)
Cc1ccc(NC(=O)Cn2cc(C(=O)c3ccccc3)c3ccccc32)cc1C [BC181212],–,+ (“+” <20% increase in NMNAT2 luciferase activity.)
Cc1ccccc1Cn1cc(CCC(=O)NCC2=CC=CC2)c2ccccc21 [BC181238],–,++ (“++” >20% and <100% increase in NMNAT2 luciferase activity.)
CCN(CC)C(=O)Cn1cc(C(=O)c2ccccc2)c2ccccc21 [BC181217],–,+ (“+” <20% increase in NMNAT2 luciferase activity.)
Cc1ccc(CNC(=O)Cn2cc(C(=O)c3ccncc3)c(=O)c3cc(C)c(C)cc32)cc1 [BC181255],–,+ (“+” <20% increase in NMNAT2 luciferase activity.)
Cc1cccc(NC(=O)Cn2cc(C(=O)c3ccccc3)c3ccccc32)c1 [BC181208],–,+ (“+” <20% increase in NMNAT2 luciferase activity.)
Cc1ccc(Cn2cc(CCC(=O)NCC3=CC=CC3)c3ccccc32)cc1 [BC181239],–,+ (“+” <20% increase in NMNAT2 luciferase activity.)
Cc1ccc(C)c(NC(=O)Cn2cc(C(=O)c3ccccc3)c3ccccc32)c1 [BC181211],–,++ (“++” >20% and <100% increase in NMNAT2 luciferase activity.)
Cc1ccc2c(c1)c(=O)c(C(=O)c1ccncc1)cn2CC(=O)NCc1ccccc1 [BC181249],–,+ (“+” <20% increase in NMNAT2 luciferase activity.)
Cc1ccc(CNC(=O)Cn2cc(C(=O)c3ccncc3)c(=O)c3cc(C)ccc32)cc1 [BC181250],–,+ (“+” <20% increase in NMNAT2 luciferase activity.)
Cc1ccc(Cn2cc(CCC(=O)NCc3ccco3)c3ccccc32)cc1 [BC181240],–,+ (“+” <20% increase in NMNAT2 luciferase activity.)
Cc1ccc(C)c(Cn2cc(CCC(=O)NCC3=CC=CC3)c3ccccc32)c1 [BC181246],–,++ (“++” >20% and <100% increase in NMNAT2 luciferase activity.)
COCCNC(=O)CCCc1cn(Cc2ccc(C)cc2)c2ccccc12 [BC181234],–,++ (“++” >20% and <100% increase in NMNAT2 luciferase activity.)
Cc1ccccc1Cn1cc(CCC(=O)NCc2ccco2)c2ccccc21 [BC181241],–,+ (“+” <20% increase in NMNAT2 luciferase activity.)
Cc1ccc(Cn2cc(C(CC(=O)NCc3ccco3)c3ccccc3C)c3ccccc32)cc1 (centres unmarked) [BC181260],–,++ (“++” >20% and <100% increase in NMNAT2 luciferase activity.)
CC(=O)c1cn(CC(=O)NCc2ccncc2)c2ccccc12 [BC181266],–,+ (“+” <20% increase in NMNAT2 luciferase activity.)
Cc1ccc(NC(=O)Cn2cc(C(=O)c3ccccc3)c3ccccc32)cc1 [BC181209],–,+ (“+” <20% increase in NMNAT2 luciferase activity.)
Cc1cccc(NC(=O)Cn2cc(C(=O)c3ccccc3)c3ccccc32)c1C [BC181210],–,++ (“++” >20% and <100% increase in NMNAT2 luciferase activity.)
COCCNC(=O)Cn1cc(C(=O)c2ccccc2)c2ccccc21 [BC181214],–,+ (“+” <20% increase in NMNAT2 luciferase activity.)
CC(NC(=O)Cn1cc(C(=O)C2CCCCC2)c2ccccc21)c1ccccc1 (centres unmarked) [BC181225],–,+ (“+” <20% increase in NMNAT2 luciferase activity.)
